This note sets out measurements from ChEMBL document CHEMBL1201862, “PubChem BioAssay data set” (2004).

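Cultured in 96-well plates, cells were exposed to test compound for 48 hours across five concentrations. At the GI50, growth is halved.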 Calls of active or inactive are those of the source. Cut-off read from the data, not from the text of the source: active = GI50 up to about 1.1 µM and inactive = higher.

Some test systems named below: NCI-H460; EKVX; SF-295; BT-549; RPMI-8226; MDA-N; PC-3; NCI-H226; UACC-62; K562; 786-0; M14; HT-29; DU-145; SK-MEL-2; HOP-92; KM12; ACHN; NCI-H522; TK-10.
What all share (test): NCI-60 cell line screen, 48 h

`O=S(=O)(O)c1cc(Cl)c(O)c2ncc(Cl)cc12`: the GI50 with NCI-H460 was 55.5 µM (inactive); in the experiment with EKVX, 69 µM (inactive); with SF-295, > 100 µM (inactive); with BT-549, 79.4 µM (inactive); in the experiment on RPMI-8226 it was 45.2 µM (inactive); with MDA-N, > 100 µM (inactive). Further, the GI50 with PC-3 is > 100 µM (inactive); with NCI-H226 it was 73.1 µM (inactive); in the experiment on UACC-62, 50.1 µM (inactive); in the experiment on K562, 41.6 µM (inactive); in the experiment on 786-0, 92 µM (inactive); in the experiment on M14, 90.8 µM (inactive). The GI50 was 38.5 µM (inactive) with HT-29; > 100 µM (inactive) in the experiment on DU-145; > 100 µM (inactive) with SK-MEL-2; 87.1 µM (inactive) with HOP-92; > 100 µM (inactive) in the experiment on KM12; 76 µM (inactive) in the experiment on ACHN.
As for `CC(C)CCCC(C)[C@H]1CCC2[C@@H]3CCC4Cc5nc6c(nc5C[C@]4(C)C3CC[C@@]21C)CC1CC[C@@H]2C(C[C@@H](O)[C@@]3(C)C2C[C@@H]2OC4(CCC(C)CO4)C(C)[C@@H]23)[C@@]1(C)C6` (stereo not given in full), the GI50 with NCI-H460, with EKVX, with SF-295, with BT-549, with RPMI-8226 and with MDA-N was > 100 µM (inactive) throughout. Besides, the GI50 in the experiment with PC-3, in the experiment on NCI-H522, in the experiment with NCI-H226, in the experiment with UACC-62, in the experiment on K562 and with 786-0 was > 100 µM (inactive) throughout. Besides, the GI50 with TK-10, with M14, in the experiment with HT-29, in the experiment with DU-145, in the experiment on HOP-92 and in the experiment with KM12 was > 100 µM (inactive) in each case. The GI50 in the experiment on ACHN is > 100 µM (inactive).
As for `CC(C)c1cc(C(C)C)c(B(c2ccccc2)c2ccccc2)c(C(C)C)c1Br`, the GI50 in the experiment with NCI-H460, in the experiment with EKVX, in the experiment on SF-295, with BT-549, with MDA-N and with PC-3 was > 100 µM (inactive) each time. Also, the GI50 in the experiment with NCI-H522, in the experiment with NCI-H226, with UACC-62, in the experiment on K562, in the experiment with 786-0 and with TK-10 was > 100 µM (inactive) in each case. Besides, the GI50 in the experiment on M14, in the experiment with HT-29, in the experiment on DU-145, with SK-MEL-2, in the experiment with HOP-92 and with KM12 was > 100 µM (inactive) throughout. In the experiment on ACHN, the GI50 was > 100 µM (inactive).
Take `C=C[C@H]1CN2CCc3c([nH]c4cc(O)ccc34)[C@@H]2C[C@@H]1C[C@H]1c2[nH]c3ccccc3c2CCN1C`: the GI50 was 2.07 µM (inactive) in the experiment with NCI-H460; 7.62 µM (inactive) in the experiment on EKVX; 4.53 µM (inactive) in the experiment with SF-295; 13.8 µM (inactive) in the experiment with BT-549; 1.78 µM (inactive) in the experiment with MDA-N; 4.89 µM (inactive) with PC-3. For the same molecule, the GI50 was 2.99 µM (inactive) in the experiment on NCI-H522; 18.7 µM (inactive) with NCI-H226; 4.19 µM (inactive) in the experiment on UACC-62; 2.78 µM (inactive) in the experiment on K562; 1.84 µM (inactive) in the experiment on 786-0; 8.57 µM (inactive) in the experiment on TK-10. The GI50 in the experiment with M14 is 1.74 µM (inactive); with HT-29, 2.48 µM (inactive); in the experiment on DU-145 it was 15.6 µM (inactive); in the experiment with SK-MEL-2 it was 3.21 µM (inactive); with HOP-92, 3.39 µM (inactive); with KM12, 3.66 µM (inactive). The GI50 with ACHN was 5.28 µM (inactive).
With `O=[N+]([O-])c1cc(Br)cc2cc(Cl)cnc12`, the GI50 with NCI-H460 was > 100 µM (inactive); with EKVX, > 100 µM (inactive); with SF-295, 70.6 µM (inactive); with BT-549, 72.4 µM (inactive); with RPMI-8226 it was > 100 µM (inactive); with MDA-N, > 100 µM (inactive). Further, the GI50 with PC-3 was > 100 µM (inactive); in the experiment with NCI-H522, > 100 µM (inactive); with NCI-H226, > 100 µM (inactive); with UACC-62, 61.4 µM (inactive); in the experiment on K562 it was > 100 µM (inactive); in the experiment on 786-0 it was > 100 µM (inactive). For the same molecule, the GI50 in the experiment on TK-10 is > 100 µM (inactive); with M14 it was > 100 µM (inactive); in the experiment with HT-29, > 100 µM (inactive); with DU-145, > 100 µM (inactive); in the experiment on HOP-92 it was 1.02 µM (active); in the experiment on KM12, > 100 µM (inactive). Besides, the GI50 in the experiment with ACHN is > 100 µM (inactive).
Take `Cc1ccc(S(=O)(=O)NNC(=O)c2cc(C)ccc2NC(=O)C23CC4CC(CC(C4)C2)C3)cc1`: the GI50 with NCI-H460 is 43.8 µM (inactive); with EKVX it was 60 µM (inactive); in the experiment with SF-295 it was 45.5 µM (inactive); in the experiment with BT-549, > 100 µM (inactive); in the experiment with RPMI-8226, > 100 µM (inactive); in the experiment on MDA-N, > 100 µM (inactive). Further, the GI50 was 34.5 µM (inactive) with PC-3; 20.2 µM (inactive) in the experiment with NCI-H522; 60.7 µM (inactive) in the experiment with NCI-H226; 39.7 µM (inactive) with UACC-62; > 100 µM (inactive) in the experiment on K562; 21.9 µM (inactive) in the experiment on 786-0. In addition, the GI50 with TK-10 is 41.8 µM (inactive); in the experiment with M14, 84.7 µM (inactive); in the experiment on HT-29, > 100 µM (inactive); in the experiment with DU-145, 29.6 µM (inactive); with HOP-92, 21.6 µM (inactive); in the experiment with KM12, 75.3 µM (inactive). The GI50 in the experiment on ACHN is 21.1 µM (inactive).
Turning to `CSc1ncc2c(C#N)c3ccccn3c(=O)c2n1`, the GI50 in the experiment with NCI-H460 is 57.3 µM (inactive); in the experiment on EKVX, > 100 µM (inactive); in the experiment with SF-295, > 100 µM (inactive); with BT-549, > 100 µM (inactive); with RPMI-8226, > 100 µM (inactive); with MDA-N it was > 100 µM (inactive). Moreover, the GI50 with PC-3, with NCI-H226, in the experiment with UACC-62, with K562, with 786-0 and in the experiment with TK-10 was > 100 µM (inactive) each time. The GI50 in the experiment on M14, in the experiment on HT-29, in the experiment with DU-145, with SK-MEL-2, with HOP-92 and with KM12 was > 100 µM (inactive) in each case. Further, the GI50 in the experiment on ACHN is > 100 µM (inactive).
With `CN(CCNC(=O)c1nn(C)c2c1Cc1ccccc1-2)CCNC(=O)c1nn(C)c2c1Cc1ccccc1-2`, the GI50 in the experiment on NCI-H460 is 16.4 µM (inactive); in the experiment with EKVX, 23.2 µM (inactive); with SF-295, 16 µM (inactive); with BT-549 it was 16.2 µM (inactive); in the experiment on MDA-N, 14.5 µM (inactive); with PC-3, 18.4 µM (inactive). Besides, the GI50 with NCI-H522 is 16.2 µM (inactive); in the experiment with NCI-H226, 18.3 µM (inactive); with UACC-62, 15.2 µM (inactive); in the experiment on K562, 12.7 µM (inactive); in the experiment on 786-0, 14.5 µM (inactive); with TK-10, 15.7 µM (inactive). The GI50 with M14 was 12.6 µM (inactive); with HT-29, 14 µM (inactive); in the experiment on DU-145, 17.9 µM (inactive); in the experiment with SK-MEL-2, 14.7 µM (inactive); with HOP-92, 12.9 µM (inactive); in the experiment with KM12, 19.1 µM (inactive). Further, the GI50 with ACHN was 14.5 µM (inactive).
On to `COC(=O)c1cc(C#N)[nH]c1-c1ccc(C)s1`, for which the GI50 with NCI-H460 is 82.2 µM (inactive); with EKVX, 19.5 µM (inactive); in the experiment on SF-295, 38.8 µM (inactive); in the experiment on BT-549, 30.5 µM (inactive); in the experiment with RPMI-8226 it was 51.3 µM (inactive); with MDA-N it was > 100 µM (inactive). Further, the GI50 in the experiment with PC-3 was 8.39 µM (inactive); in the experiment with NCI-H522, 36.1 µM (inactive); in the experiment on NCI-H226, 37.6 µM (inactive); in the experiment on UACC-62, 51.3 µM (inactive); in the experiment with K562, > 100 µM (inactive); in the experiment on 786-0, 98.2 µM (inactive). The GI50 in the experiment on M14 is > 100 µM (inactive); in the experiment with DU-145, 30.6 µM (inactive); in the experiment on HOP-92, 30.2 µM (inactive); in the experiment on KM12, 92.7 µM (inactive); in the experiment with ACHN it was 41.3 µM (inactive).
In the case of `N#Cc1c(-c2ccc(Cl)cc2)c2c(n(C3OC(CO)C(O)C(O)C3O)c1=S)CCC2` (stereo not given), the GI50 in the experiment with NCI-H460 was 33 µM (inactive); in the experiment on SF-295, > 10 µM (inactive); in the experiment with BT-549, 34.4 µM (inactive); in the experiment on RPMI-8226, 45.8 µM (inactive); with MDA-N, 34.5 µM (inactive); in the experiment on PC-3 it was 28.4 µM (inactive). The GI50 in the experiment with UACC-62 was 17.1 µM (inactive); in the experiment with K562, 14.7 µM (inactive); in the experiment on 786-0 it was 30.9 µM (inactive); in the experiment with TK-10, 37.6 µM (inactive); in the experiment with M14 it was 22.6 µM (inactive); in the experiment with HT-29 it was 29 µM (inactive). Further, the GI50 is 42.4 µM (inactive) in the experiment with DU-145; 34.5 µM (inactive) with SK-MEL-2; 24.3 µM (inactive) in the experiment on HOP-92; 41.9 µM (inactive) in the experiment on KM12; 33 µM (inactive) in the experiment with ACHN.
